The text below walks through data of patent publication US4877893A, “Process for the preparation of 2-(O-alkyl)-2-thio-1,3,2-oxathiophospholanes” (priority 1987, dated 1989).

What all share (assay): Fungicidal effect on infected agar nutrient media, colony diameter
Holding throughout (format): cell-based

One experiment has as its system Sclerotinia sclerotinia. The following applies: 3rd day after treatment, untreated control 41.7. The protocol: Agar nutrient media (Diameter 70 MM, thickness 10 mm) infected by Sclerotonia sclerotinia suspension are treated with 20 EC formulations prepared according to Example 27 and comprising 1, 10, 100 and 1000 ppm, respectively of the active ingredient of the Formula I. The fungicidal effect of the compositions is evaluated on the 3rd day after treatment by measuring the diameter of the Fungi colonies.

The next experiment relates to Penicillium cyclopium. To be noted: 7th day after treatment, untreated 26.5. The procedure, abridged: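 Agar media (70 mm diameter, 10 mm thick) infected with Penicillium cyclopium were treated with EC formulations at 1, 10, 100 and 1000 ppm active ingredient. Fungal colony diameter was measured on day 7 after treatment.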
The next experiment concerns Alternaria tenuis. To be noted: 5th day after treatment, untreated control 36.8. The procedure, abridged: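 Agar media (70 mm diameter, 10 mm thick) infected with Alternaria tenuis, treated with EC formulations at 1, 10, 100 and 1000 ppm active ingredient. Fungicidal effect read on day 5 after treatment as fungal colony diameter.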

In the case of `CC(CI)OP1(=S)OC(C)C(C)S1` (stereo not drawn) [Compound 36], the “Diameter of colony (mm)” value is 37.2 mm in the experiment with Sclerotinia sclerotinia (1 ppm); 26.9 mm in the experiment with Sclerotinia sclerotinia (10 ppm); 0 mm with Sclerotinia sclerotinia (100 ppm); 0 mm with Sclerotinia sclerotinia (1000 ppm); 23.2 mm with Penicillium cyclopium (1 ppm); 16.8 mm in the experiment with Penicillium cyclopium (10 ppm). For the same compound, the “Diameter of colony (mm)” value stood at 7.2 mm in the experiment on Penicillium cyclopium (100 ppm); 0 mm with Penicillium cyclopium (1000 ppm); 32.5 mm in the experiment with Alternaria tenuis (1 ppm); 20.7 mm with Alternaria tenuis (10 ppm); 4.3 mm with Alternaria tenuis (100 ppm); 0 mm with Alternaria tenuis (1000 ppm).
For the compound `CC1CSP(=S)(OC(C)C(C)Cl)O1` (stereo not drawn) [Compound 37], the “Diameter of colony (mm)” value in the experiment on Sclerotinia sclerotinia (1 ppm) came to 39.2 mm; in the experiment with Sclerotinia sclerotinia (10 ppm), 27.1 mm; in the experiment on Sclerotinia sclerotinia (100 ppm), 0 mm; in the experiment with Sclerotinia sclerotinia (1000 ppm) it was 0 mm; with Penicillium cyclopium (1 ppm), 19.9 mm; in the experiment with Penicillium cyclopium (10 ppm) it was 17.5 mm. Further, the “Diameter of colony (mm)” value in the experiment on Penicillium cyclopium (100 ppm) is listed as 6.6 mm; in the experiment with Penicillium cyclopium (1000 ppm), 0 mm; in the experiment on Alternaria tenuis (1 ppm) it was 30.8 mm; in the experiment on Alternaria tenuis (10 ppm) it was 21.9 mm; in the experiment on Alternaria tenuis (100 ppm) it was 5.6 mm; with Alternaria tenuis (1000 ppm) it was 0 mm.
Take `CC1CSP(=S)(OC(C)C(C)Br)O1` (stereo not drawn) [Compound 38]: the “Diameter of colony (mm)” value was found to be 37.8 mm in the experiment with Sclerotinia sclerotinia (1 ppm); 31.3 mm in the experiment with Sclerotinia sclerotinia (10 ppm); 0 mm in the experiment on Sclerotinia sclerotinia (100 ppm); 0 mm in the experiment on Sclerotinia sclerotinia (1000 ppm); 24.3 mm in the experiment on Penicillium cyclopium (1 ppm); 18.6 mm in the experiment on Penicillium cyclopium (10 ppm). In addition, the “Diameter of colony (mm)” value stood at 7.4 mm in the experiment with Penicillium cyclopium (100 ppm); 0 mm with Penicillium cyclopium (1000 ppm); 30.2 mm in the experiment with Alternaria tenuis (1 ppm); 24.5 mm with Alternaria tenuis (10 ppm); 6.9 mm with Alternaria tenuis (100 ppm); 0 mm with Alternaria tenuis (1000 ppm).
For `CC1CSP(=S)(OC(C)C(C)I)O1` (stereo not drawn) [Compound 39], the “Diameter of colony (mm)” value in the experiment on Sclerotinia sclerotinia (1 ppm) was 37.2 mm; with Sclerotinia sclerotinia (10 ppm) it was 30.2 mm; with Sclerotinia sclerotinia (100 ppm), 3.6 mm; in the experiment on Sclerotinia sclerotinia (1000 ppm) it was 0 mm; in the experiment on Penicillium cyclopium (1 ppm), 21.1 mm; in the experiment on Penicillium cyclopium (10 ppm), 15.8 mm. Besides, the “Diameter of colony (mm)” value with Penicillium cyclopium (100 ppm) is listed as 4.7 mm; with Penicillium cyclopium (1000 ppm) it was 0 mm; with Alternaria tenuis (1 ppm), 34.6 mm; in the experiment on Alternaria tenuis (10 ppm), 23.3 mm; in the experiment on Alternaria tenuis (100 ppm), 7.3 mm; in the experiment on Alternaria tenuis (1000 ppm) it was 0 mm.
For the compound `CC(Cl)COP1(=S)OC(C)C(C)S1` (stereo not drawn) [Compound 40], the “Diameter of colony (mm)” value in the experiment with Sclerotinia sclerotinia (1 ppm) is 34.9 mm; with Sclerotinia sclerotinia (10 ppm), 28.0 mm; in the experiment with Sclerotinia sclerotinia (100 ppm) it was 1.9 mm; in the experiment on Sclerotinia sclerotinia (1000 ppm), 0 mm; in the experiment on Penicillium cyclopium (1 ppm), 18.9 mm; in the experiment on Penicillium cyclopium (10 ppm), 20.0 mm. Further, the “Diameter of colony (mm)” value in the experiment with Penicillium cyclopium (100 ppm) was found to be 6.8 mm; with Penicillium cyclopium (1000 ppm), 0 mm; with Alternaria tenuis (1 ppm), 31.3 mm; in the experiment with Alternaria tenuis (10 ppm), 21.7 mm; in the experiment with Alternaria tenuis (100 ppm), 6.1 mm; in the experiment on Alternaria tenuis (1000 ppm), 0 mm.
In the case of `CC(Br)COP1(=S)OC(C)C(C)S1` (stereo not drawn) [Compound 41], the “Diameter of colony (mm)” value with Sclerotinia sclerotinia (1 ppm) amounted to 37.6 mm; with Sclerotinia sclerotinia (10 ppm), 30.0 mm; in the experiment on Sclerotinia sclerotinia (100 ppm), 2.6 mm; with Sclerotinia sclerotinia (1000 ppm) it was 0 mm; in the experiment with Penicillium cyclopium (1 ppm), 24.1 mm; with Penicillium cyclopium (10 ppm), 16.4 mm. The “Diameter of colony (mm)” value in the experiment with Penicillium cyclopium (100 ppm) came to 4.9 mm; in the experiment on Penicillium cyclopium (1000 ppm) it was 0 mm; with Alternaria tenuis (1 ppm), 33.8 mm; in the experiment on Alternaria tenuis (10 ppm) it was 25.1 mm; in the experiment on Alternaria tenuis (100 ppm), 7.3 mm; in the experiment on Alternaria tenuis (1000 ppm), 0 mm.
